Test results taken from PubChem BioAssay (NCI).
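Test compounds were applied to cells in 96-well plates for 48 hours at 5 doses. TGI: concentration producing complete growth inhibition.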

Key:
Assay in all cases: NCI-60 cell line screen, 48 h
[1] = test system: 786-0 renal
[2] = test system: A498 renal
[3] = test system: A549 NSCLC
[4] = test system: ACHN renal
[5] = test system: BT-549 breast
[6] = test system: CAKI-1 renal
[7] = test system: CCRF-CEM leukemia
[8] = test system: COLO 205 colon
[9] = test system: DU-145 prostate
[10] = test system: EKVX NSCLC
[11] = test system: HCT-116 colon
[12] = test system: HCT-15 colon
[13] = test system: HL-60(TB) leukemia
[14] = test system: HOP-62 NSCLC
[15] = test system: HOP-92 NSCLC
[16] = test system: HS 578T breast
[17] = test system: HT29 colon
[18] = test system: IGROV1 ovarian
[19] = test system: K-562 leukemia
[20] = test system: KM12 colon
[21] = test system: LOX IMVI melanoma
[22] = test system: M14 melanoma
[23] = test system: MALME-3M melanoma
[24] = test system: MCF7 breast
[25] = test system: MDA-MB-231 breast
[26] = test system: MDA-MB-435
[27] = test system: MDA-N
[28] = test system: MOLT-4 leukemia
[29] = test system: NCI-H226 lung
[30] = test system: NCI-H23 lung
[31] = test system: NCI-H460 lung
[32] = test system: NCI-H522 lung
[33] = test system: NCI/ADR-RES ovarian
[34] = test system: OVCAR-3 ovarian
[35] = test system: OVCAR-4 ovarian
[36] = test system: OVCAR-5 ovarian
[37] = test system: OVCAR-8 ovarian
[38] = test system: PC-3 prostate
[39] = test system: SF-295 CNS
[40] = test system: SF-539 CNS
[41] = test system: SK-MEL-2 melanoma
[42] = test system: SK-MEL-28 melanoma
[43] = test system: SK-MEL-5 melanoma
[44] = test system: SK-OV-3 ovarian
[45] = test system: SN12C renal
[46] = test system: SNB-19 CNS
[47] = test system: SNB-75 CNS
[48] = test system: SR leukemia
[49] = test system: SW-620 colon
[50] = test system: T-47D breast
[51] = test system: TK-10 renal
[52] = test system: U251 CNS
[53] = test system: UACC-257 melanoma
[54] = test system: UACC-62 melanoma
[55] = test system: UO-31 renal
[56] = test system: HCC-2998 colon
[57] = test system: RPMI-8226 leukemia
[58] = test system: RXF 393 renal
[59] = test system: SF-268 CNS

CC(=O)NC(CSC1=C2NC(=O)\C=C/C=C/C=C\C(C)C(O)CC(=O)/C(C)=C\CC(O)/C=C/C(C)C(O)C(C)C=C(C)C(=O)c3c(O)c(C)cc(c3C1=O)C2=O)C(=O)O (stereo unspecified)
TGI [1]: > 100 µM
TGI [2]: > 100 µM
TGI [3]: > 100 µM
TGI [4]: > 100 µM
TGI [5]: > 100 µM
TGI [6]: > 100 µM
TGI [7]: 78.9 µM
TGI [8]: 79.6 µM
TGI [9]: > 100 µM
TGI [10]: > 100 µM
TGI [11]: > 100 µM
TGI [12]: > 100 µM
TGI [13]: 73.2 µM
TGI [14]: > 100 µM
TGI [15]: > 100 µM
TGI [16]: > 100 µM
TGI [17]: > 100 µM
TGI [18]: > 100 µM
TGI [19]: > 100 µM
TGI [20]: > 100 µM
TGI [21]: > 100 µM
TGI [22]: > 100 µM
TGI [23]: > 100 µM
TGI [24]: > 100 µM
TGI [25]: 82.7 µM
TGI [26]: > 100 µM
TGI [27]: > 100 µM
TGI [28]: > 100 µM
TGI [29]: > 100 µM
TGI [30]: > 100 µM
TGI [31]: > 100 µM
TGI [32]: 71.8 µM
TGI [33]: > 100 µM
TGI [34]: > 100 µM
TGI [35]: > 100 µM
TGI [36]: > 100 µM
TGI [37]: > 100 µM
TGI [38]: > 100 µM
TGI [39]: > 100 µM
TGI [40]: > 100 µM
TGI [41]: > 100 µM
TGI [42]: > 100 µM
TGI [43]: > 100 µM
TGI [44]: > 100 µM
TGI [45]: > 100 µM
TGI [46]: > 100 µM
TGI [47]: > 100 µM
TGI [48]: > 100 µM
TGI [49]: > 100 µM
TGI [50]: > 100 µM
TGI [51]: > 100 µM
TGI [52]: > 100 µM
TGI [53]: > 100 µM
TGI [54]: > 100 µM
TGI [55]: > 100 µM

COC1=C(Cl)C(=O)c2c(O)ccc(O)c2C1=O
TGI [1]: 0.864 µM
TGI [2]: 2.63 µM
TGI [3]: 19.3 µM
TGI [4]: 2.31 µM
TGI [5]: 3.31 µM
TGI [6]: 1.6 µM
TGI [7]: 0.213 µM
TGI [8]: 0.53 µM
TGI [9]: 6.83 µM
TGI [10]: 10.6 µM
TGI [56]: 27.3 µM
TGI [11]: 1.34 µM
TGI [12]: 3.23 µM
TGI [14]: 2.31 µM
TGI [15]: 3.61 µM
TGI [16]: 4.96 µM
TGI [17]: 11.8 µM
TGI [18]: 3.72 µM
TGI [20]: 23.5 µM
TGI [21]: 3.63 µM
TGI [22]: 1.28 µM
TGI [23]: 1.1 µM
TGI [24]: 3.29 µM
TGI [25]: 3.19 µM
TGI [26]: 3.13 µM
TGI [27]: 4.8 µM
TGI [28]: 0.489 µM
TGI [29]: 26.1 µM
TGI [30]: 4.62 µM
TGI [31]: 24.4 µM
TGI [32]: 0.564 µM
TGI [33]: 2.32 µM
TGI [34]: 1.04 µM
TGI [35]: 3.66 µM
TGI [36]: 7.49 µM
TGI [37]: 4.78 µM
TGI [38]: 9.17 µM
TGI [57]: 1.45 µM
TGI [58]: 2.69 µM
TGI [59]: 6.25 µM
TGI [39]: 20.3 µM
TGI [40]: 1.53 µM
TGI [41]: 3.25 µM
TGI [42]: 6.73 µM
TGI [43]: 2.75 µM
TGI [44]: 29.4 µM
TGI [45]: 2.74 µM
TGI [46]: 17.1 µM
TGI [47]: 17.1 µM
TGI [48]: 1.3 µM
TGI [49]: 0.46 µM
TGI [50]: 3.61 µM
TGI [51]: 2.4 µM
TGI [52]: 11.9 µM
TGI [53]: 3.41 µM
TGI [54]: 4.12 µM
TGI [55]: 3.71 µM

COc1cc(Cc2cnc(N)nc2N)cc(OC)c1OCCCNc1ccc([N+](=O)[O-])cc1
TGI [1]: 28 µM
TGI [2]: 39.3 µM
TGI [3]: 35.2 µM
TGI [4]: 37.8 µM
TGI [5]: 31.1 µM
TGI [6]: > 100 µM
TGI [7]: 35.2 µM
TGI [8]: 27.4 µM
TGI [9]: 30.2 µM
TGI [10]: 32 µM
TGI [56]: 31.4 µM
TGI [11]: 30.4 µM
TGI [12]: 37.8 µM
TGI [14]: 27.4 µM
TGI [15]: 36.4 µM
TGI [16]: > 100 µM
TGI [17]: 14.8 µM
TGI [18]: 28.3 µM
TGI [19]: > 100 µM
TGI [20]: 32.2 µM
TGI [22]: 19.2 µM
TGI [23]: 25.8 µM
TGI [24]: 26.5 µM
TGI [25]: 27.5 µM
TGI [26]: 29.8 µM
TGI [27]: 32.9 µM
TGI [28]: 8.66 µM
TGI [29]: 28.4 µM
TGI [30]: 31.8 µM
TGI [31]: 26 µM
TGI [32]: 26.3 µM
TGI [33]: 60 µM
TGI [34]: 28.1 µM
TGI [35]: 33.6 µM
TGI [36]: 35.5 µM
TGI [37]: 30.1 µM
TGI [38]: 22.3 µM
TGI [58]: 25.2 µM
TGI [59]: 74 µM
TGI [40]: 26.1 µM
TGI [41]: 29.5 µM
TGI [42]: 27.1 µM
TGI [43]: 18.9 µM
TGI [44]: 66.6 µM
TGI [45]: 41.4 µM
TGI [46]: 27 µM
TGI [47]: 32.7 µM
TGI [48]: 24.3 µM
TGI [49]: 34.2 µM
TGI [50]: 25.3 µM
TGI [51]: 32.7 µM
TGI [52]: 29.2 µM
TGI [53]: 25.9 µM
TGI [54]: 26.7 µM
TGI [55]: 26.5 µM

COC(=O)C1=C(C(=O)OC)C(N(C)C)C(C(=O)OC)=C(C(=O)OC)S1
TGI [1]: > 100 µM
TGI [2]: > 100 µM
TGI [3]: > 100 µM
TGI [4]: > 100 µM
TGI [5]: > 100 µM
TGI [6]: > 100 µM
TGI [8]: > 100 µM
TGI [9]: > 100 µM
TGI [56]: > 100 µM
TGI [11]: > 100 µM
TGI [12]: > 100 µM
TGI [14]: > 100 µM
TGI [16]: > 100 µM
TGI [19]: > 100 µM
TGI [20]: > 100 µM
TGI [21]: > 100 µM
TGI [22]: > 100 µM
TGI [24]: > 100 µM
TGI [25]: > 100 µM
TGI [26]: > 100 µM
TGI [27]: > 100 µM
TGI [28]: > 100 µM
TGI [29]: > 100 µM
TGI [30]: > 100 µM
TGI [31]: > 100 µM
TGI [33]: > 100 µM
TGI [34]: > 100 µM
TGI [35]: > 100 µM
TGI [36]: > 100 µM
TGI [37]: > 100 µM
TGI [38]: > 100 µM
TGI [57]: > 100 µM
TGI [58]: > 100 µM
TGI [59]: > 100 µM
TGI [39]: > 100 µM
TGI [41]: > 100 µM
TGI [42]: > 100 µM
TGI [44]: > 100 µM
TGI [45]: > 100 µM
TGI [46]: > 100 µM
TGI [47]: > 100 µM
TGI [48]: > 100 µM
TGI [49]: > 100 µM
TGI [50]: > 100 µM
TGI [51]: > 100 µM
TGI [52]: > 100 µM
TGI [53]: > 100 µM
TGI [54]: > 100 µM
TGI [55]: > 100 µM
